In patent US10479780B2, “Aminopyrazole derivatives” (Chugai Seiyaku Kabushiki Kaisha, priority 2015, dated 2019) one finds IC50 data, which are given here for 21 compounds.

SMILES strings stand for the structures.

Holding throughout (assay type): biochemical
One assay concerns the target T1, human Lck enzyme (Homo sapiens, UniProt P06239).
T1 construct: purchased Carna Biosciences, Inc. 08-170
The assay is described as follows: Lck enzyme inhibitory activity (time-resolved fluorometry, biotinylated peptide phosphorylation). To be noted: read-out: LCK_IC50. The gist of the method: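 Readout pairs a europium cryptate-labelled anti-phosphotyrosine antibody with XL665-streptavidin, measured by time-resolved fluorescence. IC50 derived from percent inhibition against untreated controls.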

The target in another assay is T2, human Src enzyme (Homo sapiens, UniProt P12931).
T2 construct: purchased Carna Biosciences, Inc. 08-173
Kind of assay: Src enzyme inhibitory activity (time-resolved fluorometry, biotinylated peptide phosphorylation). To be noted: read-out: SRC_IC50. The procedure, abridged: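 Compounds were tested for blocking tyrosine phosphorylation of a biotinylated peptide substrate by recombinant human Src. Phosphorylated product was quantified by time-resolved fluorometry using europium cryptate and XL665 conjugates, and IC50 was calculated against the compound-free control.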

The target in a further assay is T3, human Yes1 enzyme (Homo sapiens, UniProt P07947).
T3 construct: made in house
Kind of assay: Yes1 enzyme inhibitory activity (time-resolved fluorometry, biotinylated peptide phosphorylation). To be noted: read-out: YES_IC50. The gist of the method:
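Inhibition was expressed against a compound-free control to give IC50, using TR-FRET read-out (Eu-cryptate anti-pTyr antibody, streptavidin-XL665).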

T2 sequence (P12931 whole entry): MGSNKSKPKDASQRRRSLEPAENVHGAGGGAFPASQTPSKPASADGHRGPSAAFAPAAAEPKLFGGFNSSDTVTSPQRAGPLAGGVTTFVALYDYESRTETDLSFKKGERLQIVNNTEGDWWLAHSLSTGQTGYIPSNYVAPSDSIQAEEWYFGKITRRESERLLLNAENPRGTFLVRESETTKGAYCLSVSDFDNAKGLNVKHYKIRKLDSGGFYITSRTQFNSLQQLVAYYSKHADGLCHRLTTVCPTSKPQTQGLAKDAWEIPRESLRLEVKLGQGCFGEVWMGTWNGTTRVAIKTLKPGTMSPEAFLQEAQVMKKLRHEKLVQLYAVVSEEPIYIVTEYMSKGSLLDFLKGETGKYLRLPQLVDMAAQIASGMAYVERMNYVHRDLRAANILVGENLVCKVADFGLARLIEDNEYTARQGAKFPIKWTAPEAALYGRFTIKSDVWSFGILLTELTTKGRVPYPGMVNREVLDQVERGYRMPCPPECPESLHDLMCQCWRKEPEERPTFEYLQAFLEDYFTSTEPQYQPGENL
T1 sequence (P06239 whole entry): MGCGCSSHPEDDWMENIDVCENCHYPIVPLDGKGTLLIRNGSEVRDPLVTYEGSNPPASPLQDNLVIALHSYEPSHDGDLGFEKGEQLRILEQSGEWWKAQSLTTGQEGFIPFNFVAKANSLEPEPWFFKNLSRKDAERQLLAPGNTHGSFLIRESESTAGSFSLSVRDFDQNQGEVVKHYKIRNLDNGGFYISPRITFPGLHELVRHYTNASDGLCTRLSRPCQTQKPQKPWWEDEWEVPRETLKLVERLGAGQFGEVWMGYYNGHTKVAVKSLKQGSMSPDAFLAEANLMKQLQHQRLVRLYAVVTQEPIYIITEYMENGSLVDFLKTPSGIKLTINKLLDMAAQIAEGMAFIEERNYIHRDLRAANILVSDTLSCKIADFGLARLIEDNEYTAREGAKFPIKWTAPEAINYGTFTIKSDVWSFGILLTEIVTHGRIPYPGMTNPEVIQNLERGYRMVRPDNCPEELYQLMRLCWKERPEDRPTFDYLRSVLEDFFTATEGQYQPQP
T3 sequence (P07947 whole entry): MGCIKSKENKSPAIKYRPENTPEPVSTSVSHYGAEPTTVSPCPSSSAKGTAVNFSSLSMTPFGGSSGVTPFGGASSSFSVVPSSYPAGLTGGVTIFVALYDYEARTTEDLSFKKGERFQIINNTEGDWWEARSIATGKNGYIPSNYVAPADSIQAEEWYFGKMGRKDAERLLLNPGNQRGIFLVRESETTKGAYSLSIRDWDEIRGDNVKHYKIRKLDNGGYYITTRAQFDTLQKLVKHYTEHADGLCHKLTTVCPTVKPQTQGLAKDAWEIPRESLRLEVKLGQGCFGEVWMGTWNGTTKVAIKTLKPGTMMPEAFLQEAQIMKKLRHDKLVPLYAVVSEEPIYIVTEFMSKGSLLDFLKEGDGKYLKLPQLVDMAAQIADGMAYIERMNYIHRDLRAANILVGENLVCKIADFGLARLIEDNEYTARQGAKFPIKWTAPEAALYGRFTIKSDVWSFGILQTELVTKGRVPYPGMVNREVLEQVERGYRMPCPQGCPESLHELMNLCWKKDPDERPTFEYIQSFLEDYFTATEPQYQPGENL

Turning to `Cc1cc(Oc2ccccc2F)ccc1-n1ncc(C(=O)c2cc3cc(N4CCOCC4)c(N4C(=O)NC(C)(C)C4=O)cc3[nH]2)c1N` [Example 5-1-117, 3-[2-[5-amino-1-[4-(2-fluorophenoxy)-2-methylphenyl]pyrazole-4-carbonyl]-5-morpholin-4-yl-1H-indol-6-yl]-5,5-dimethylimidazolidine-2,4-dione], the IC50 worked out at 1.3 nM at human Lck enzyme, 5 nM on human Src enzyme and 0.48 nM on human Yes1 enzyme.

For the compound `Cc1cc(Oc2ccccc2F)ccc1-n1ncc(C(=O)c2cc3cc(F)c(NC4CN(S(C)(=O)=O)C4)cc3[nH]2)c1N` [Example 5-1-118], the IC50 is 2.7 nM on human Lck enzyme, 11 nM on human Src enzyme and 0.85 nM on human Yes1 enzyme.

As for `Cc1cc(Oc2ccccc2F)ccc1-n1ncc(C(=O)c2cc3cc(F)c(N4CCOCC4)cc3[nH]2)c1N` [Example 5-1-119, [5-amino-1-[4-(2-fluorophenoxy)-2-methylphenyl]pyrazol-4-yl]-(5-fluoro-6-morpholin-4-yl-1H-indol-2-yl)methanone], the IC50 on human Lck enzyme came out at 4.8 nM; on human Src enzyme, 15 nM; on human Yes1 enzyme, 1.8 nM.

In the case of `Cc1cc(Oc2ccccc2F)ccc1-n1ncc(C(=O)c2cc3cc(N4CCOCC4)c(N4C(=O)C(C)(C)NC4=S)cc3[nH]2)c1N` [Example 5-1-120, 3-[2-[5-amino-1-[4-(2-fluorophenoxy)-2-methylphenyl]pyrazole-4-carbonyl]-5-morpholin-4-yl-1H-indol-6-yl]-5,5-dimethyl-2-sulfanylideneimidazolidin-4-one], the IC50 on human Lck enzyme is 6.1 nM; on human Src enzyme, 23 nM; on human Yes1 enzyme, 0.43 nM.

Turning to `Cc1cc2cc(C(=O)c3cnn(-c4cnc(Oc5ccccc5F)cc4C)c3N)[nH]c2cc1NS(=O)(=O)CC(=O)N1CCCC1` [Example 5-1-121, N-[2-[5-amino-1-[6-(2-fluorophenoxy)-4-methylpyridin-3-yl]pyrazole-4-carbonyl]-5-methyl-1H-indol-6-yl]-2-oxo-2-pyrrolidin-1-ylethanesulfonamide], the IC50 came out at 14 nM on human Lck enzyme, 90 nM on human Src enzyme and 1.7 nM on human Yes1 enzyme.

`COc1cc2cc(C(=O)c3cnn(-c4ccc(Oc5ccccc5F)cc4C)c3N)[nH]c2cc1NS(=O)(=O)CC(=O)N1CCCC1` [Example 5-1-122, N-[2-[5-amino-1-[4-(2-fluorophenoxy)-2-methylphenyl]pyrazole-4-carbonyl]-5-methoxy-1H-indol-6-yl]-2-oxo-2-pyrrolidin-1-ylethanesulfonamide]: the IC50 at human Lck enzyme was 4.6 nM; on human Src enzyme it was 30 nM; at human Yes1 enzyme, 0.39 nM.

For the compound `Cc1cc2cc(C(=O)c3cnn(-c4cnc(Oc5ccccc5F)cc4C)c3N)[nH]c2cc1C1CCN(S(=O)(=O)C2CC2)CC1` [Example 5-1-123, [5-amino-1-[6-(2-fluorophenoxy)-4-methylpyridin-3-yl]pyrazol-4-yl]-[6-(1-cyclopropylsulfonylpiperidin-4-yl)-5-methyl-1H-indol-2-yl]methanone], the IC50 at human Lck enzyme was found to be 33 nM; at human Src enzyme it was 91 nM; on human Yes1 enzyme, 2 nM.

For `Cc1cc(Oc2ccccc2F)ccc1-n1ncc(C(=O)c2cc3cc(N4CCOCC4)c(N4CCC(N5CCOCC5)CC4)cc3[nH]2)c1N` [Example 5-1-124, [5-amino-1-[4-(2-fluorophenoxy)-2-methylphenyl]pyrazol-4-yl]-[5-morpholin-4-yl-6-(4-morpholin-4-ylpiperidin-1-yl)-1H-indol-2-yl]methanone], the IC50 on human Lck enzyme is 10 nM; at human Src enzyme, 70 nM; at human Yes1 enzyme, 0.99 nM.

As for `Cc1cc(Oc2ccccc2F)ccc1-n1ncc(C(=O)c2cc3cc(F)c(N4CCN(S(C)(=O)=O)CC4)cc3[nH]2)c1N` [Example 5-1-125, [5-amino-1-[4-(2-fluorophenoxy)-2-methylphenyl]pyrazol-4-yl]-[5-fluoro-6-(4-methylsulfonylpiperazin-1-yl)-1H-indol-2-yl] methanone], the IC50 at human Lck enzyme was determined as 9.2 nM; at human Src enzyme it was 33 nM; on human Yes1 enzyme it was 0.71 nM.

With `Cc1cc(Oc2ccccc2F)ccc1-n1ncc(C(=O)c2cc3cc(F)c(N4C(=O)C(C)(C)NC4=S)cc3[nH]2)c1N` [Example 5-1-126, 3-[2-[5-amino-1-[4-(2-fluorophenoxy)-2-methylphenyl]pyrazole-4-carbonyl]-5-fluoro-1H-indol-6-yl]-5,5-dimethyl-2-sulfanylideneimidazolidin-4-one], the IC50 was 15 nM at human Lck enzyme, 64 nM at human Src enzyme and 0.87 nM at human Yes1 enzyme.

Consider `Cc1cc(Oc2ccccc2F)ccc1-n1ncc(C(=O)c2cc3cc(F)c(N4C(=O)NC(C)(C)C4=O)cc3[nH]2)c1N` [Example 5-1-127, 3-[2-[5-amino-1-[4-(2-fluorophenoxy)-2-methylphenyl]pyrazole-4-carbonyl]-5-fluoro-1H-indol-6-yl]-5,5-dimethylimidazolidine-2,4-dione], for which the IC50 on human Lck enzyme turned out to be 4 nM; at human Src enzyme, 39 nM; on human Yes1 enzyme, 0.67 nM.

On to `Cc1cc(Oc2ccccc2F)ccc1-n1ncc(C(=O)c2cc3cc(F)c(N4CCC(N5CCOCC5)CC4)cc3[nH]2)c1N` [Example 5-1-128, [5-amino-1-[4-(2-fluorophenoxy)-2-methylphenyl]pyrazol-4-yl]-[5-fluoro-6-(4-morpholin-4-ylpiperidin-1-yl)-1H-indol-2-yl] methanone], for which the IC50 at human Lck enzyme is 3.8 nM; on human Src enzyme, 23 nM; on human Yes1 enzyme, 0.75 nM.

As for `Cc1cc(Oc2ccccc2F)ccc1-n1ncc(C(=O)c2cc3cc(N4CCOCC4)c(NC4CCN(S(C)(=O)=O)CC4)cc3[nH]2)c1N` [Example 5-1-129, [5-amino-1-[4-(2-fluorophenoxy)-2-methylphenyl]pyrazol-4-yl]-[6-[(1-methylsulfonylpiperidin-4-yl)amino]-5-morpholin-4-yl-1H-indol-2-yl]methanone], the results for the IC50 at human Lck enzyme, at human Src enzyme and on human Yes1 enzyme were 4.6 nM, 7.3 nM and 0.61 nM, respectively.

As to `COc1cc2cc(C(=O)c3cnn(-c4c(C)cc(Oc5ccccc5F)cc4F)c3N)[nH]c2cc1NS(=O)(=O)CC(=O)N1CCCC1` [Example 5-1-130, N-[2-[5-amino-1-[2-fluoro-4-(2-fluorophenoxy)-6-methylphenyl]pyrazole-4-carbonyl]-5-methoxy-1H-indol-6-yl]-2-oxo-2-pyrrolidin-1-ylethanesulfonamide], the IC50 came to 3.8 nM at human Lck enzyme, 13 nM on human Src enzyme and 0.56 nM on human Yes1 enzyme.

As to `Cc1cc2cc(C(=O)c3cnn(-c4ccc(Oc5ccccc5F)cc4C)c3N)[nH]c2cc1C1CCN(S(=O)(=O)C2CC2)CC1` [Example 5-1-131, [5-amino-1-[4-(2-fluorophenoxy)-2-methylphenyl]pyrazol-4-yl]-[6-(1-cyclopropylsulfonylpiperidin-4-yl)-5-methyl-1H-indol-2-yl]methanone], the IC50 on human Lck enzyme stood at 5.6 nM; at human Src enzyme, 7.4 nM; on human Yes1 enzyme it was 1.1 nM.

As for `CC(=O)N1CCC(c2cc3[nH]c(C(=O)c4cnn(-c5ccc(Oc6ccccc6F)cc5C)c4N)cc3cc2C)CC1` [Example 5-1-132, 1-[4-[2-[5-amino-1-[4-(2-fluorophenoxy)-2-methylphenyl]pyrazole-4-carbonyl]-5-methyl-1H-indol-6-yl]piperidin-1-yl]ethanone], the IC50 was 3.3 nM on human Lck enzyme, 6.6 nM at human Src enzyme and 0.71 nM at human Yes1 enzyme.

Regarding `CC(=O)N1CCC(c2cc3[nH]c(C(=O)c4cnn(-c5cnc(Oc6ccccc6F)cc5C)c4N)cc3cc2C)CC1` [Example 5-1-133, 1-[4-[2-[5-amino-1-[6-(2-fluorophenoxy)-4-methylpyridin-3-yl]pyrazole-4-carbonyl]-5-methyl-1H-indol-6-yl]piperidin-1-yl]ethanone], the IC50 on human Lck enzyme was 2.5 nM; at human Src enzyme, 6.1 nM; on human Yes1 enzyme, 0.63 nM.

Turning to `Cc1cc(Oc2c(F)cccc2F)ncc1-n1ncc(C(=O)c2cc3cc(OC4CCN(C(C)C)CC4)c(Br)cc3[nH]2)c1N` [Example 5-1-134, [5-amino-1-[6-(2,6-difluorophenoxy)-4-methylpyridin-3-yl]pyrazol-4-yl]-[6-bromo-5-(1-propan-2-ylpiperidin-4-yl)oxy-1H-indol-2-yl] methanone], the IC50 stood at 2.1 nM on human Lck enzyme, 4.6 nM on human Src enzyme and 0.37 nM on human Yes1 enzyme.

`Cc1cc(Oc2ccccc2F)ccc1-n1ncc(C(=O)c2cc3cc(F)c(NC4CCN(S(C)(=O)=O)CC4)cc3[nH]2)c1N` [Example 5-1-135, [5-amino-1-[4-(2-fluorophenoxy)-2-methylphenyl]pyrazol-4-yl]-[5-fluoro-6-[(1-methylsulfonylpiperidin-4-yl)amino]-1H-indol-2-yl]methanone]: the results for the IC50 on human Lck enzyme, on human Src enzyme and on human Yes1 enzyme were 5.3 nM, 12 nM and 0.84 nM, respectively.

In the case of `Cc1cc2cc(C(=O)c3cnn(-c4cnc(Oc5c(F)cccc5F)cc4C)c3N)[nH]c2cc1NS(=O)(=O)CC(=O)NC(C)C` [Example 5-1-136, 2-[[2-[5-amino-1-[6-(2,6-difluorophenoxy)-4-methylpyridin-3-yl]pyrazole-4-carbonyl]-5-methyl-1H-indol-6-yl]sulfamoyl]-N-propan-2-ylacetamide], the IC50 was 23 nM at human Lck enzyme, 27 nM on human Src enzyme and 1.5 nM at human Yes1 enzyme.

Regarding `COc1cc2cc(C(=O)c3cnn(-c4c(C)cc(Oc5ccccc5F)cc4F)c3N)[nH]c2cc1NS(=O)(=O)CC(=O)NC(C)C` [Example 5-1-137, 2-[[2-[5-amino-1-[2-fluoro-4-(2-fluorophenoxy)-6-methylphenyl]pyrazole-4-carbonyl]-5-methoxy-1H-indol-6-yl]sulfamoyl]-N-propan-2-ylacetamide], the values for the IC50 at human Lck enzyme, on human Src enzyme and on human Yes1 enzyme were 29 nM, 41 nM and 1.3 nM, respectively.
